“And” between values parts separate entries of the source, which are not always exact repeats. Identical values can stand only once. Like-named read-outs stand apart in the source and are kept apart here. Each block holds one compound with its values, some of them ahead of it.
Key:
CSF1R [1] = biological target: T1, CSF1R (Mus musculus, UniProt P09581); assay: Ex vivo brain uptake of [^11C]1 in LPS-induced murine model of neuroinflammation, baseline and CPPC blocking; design: species or system CD1 mice
T1 construct: from tissue; host or cells: whole brain of male CD1 mice, radiotracer injected in vivo, brains counted ex vivo
T1 sequence (P09581 20-977): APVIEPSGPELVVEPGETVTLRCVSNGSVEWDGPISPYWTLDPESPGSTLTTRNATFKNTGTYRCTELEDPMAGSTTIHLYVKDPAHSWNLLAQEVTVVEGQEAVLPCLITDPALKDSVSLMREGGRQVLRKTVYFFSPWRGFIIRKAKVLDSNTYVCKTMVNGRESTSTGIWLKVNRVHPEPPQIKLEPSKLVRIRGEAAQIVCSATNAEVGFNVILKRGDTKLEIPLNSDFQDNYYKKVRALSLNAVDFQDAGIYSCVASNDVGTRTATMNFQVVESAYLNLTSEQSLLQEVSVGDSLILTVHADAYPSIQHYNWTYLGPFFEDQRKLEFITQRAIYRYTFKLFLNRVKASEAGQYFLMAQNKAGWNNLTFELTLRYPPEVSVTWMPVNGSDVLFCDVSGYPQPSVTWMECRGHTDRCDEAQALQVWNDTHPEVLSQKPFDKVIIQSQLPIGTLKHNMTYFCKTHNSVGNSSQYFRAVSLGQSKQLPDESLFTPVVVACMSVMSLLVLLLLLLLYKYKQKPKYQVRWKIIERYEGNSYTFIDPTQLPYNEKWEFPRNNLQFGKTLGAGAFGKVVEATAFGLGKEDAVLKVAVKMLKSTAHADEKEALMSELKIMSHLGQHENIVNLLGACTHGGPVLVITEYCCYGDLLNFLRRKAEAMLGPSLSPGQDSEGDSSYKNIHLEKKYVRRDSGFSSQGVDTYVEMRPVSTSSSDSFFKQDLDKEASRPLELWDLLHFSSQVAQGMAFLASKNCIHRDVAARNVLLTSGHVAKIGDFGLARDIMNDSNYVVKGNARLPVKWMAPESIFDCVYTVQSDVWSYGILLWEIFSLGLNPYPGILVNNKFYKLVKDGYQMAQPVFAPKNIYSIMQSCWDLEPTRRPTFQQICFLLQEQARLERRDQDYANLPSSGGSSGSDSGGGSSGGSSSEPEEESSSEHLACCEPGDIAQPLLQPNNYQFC
Protocol: Studies were performed in a murine LPS-induced neuroinflammation model under the conditions described previously. The percentage of the standardized uptake value (%SUV) uptake in the whole brain at […] after injection was corrected for blood radioactivity as SUV^whole brain/SUV^blood = SUV ratio (SUVR) (Fig. 1).
Fig. 1 Brain uptake of CSF1R radiotracer [^11C]1 in control mice (Base); LPS-treated mice (LPS base); and LPS-treated mice, blocking with CSF1R inhibitor (LPS block). The time point was 45 min after the radiotracer injection. The LPS treatment was IP, 10 mg/kg. Data are mean SUVR ± SD (n = 6). […] Statistical analysis: comparison of LPS-baseline versus control or LPS-block, ANOVA
Brain regional distribution of [^11C]1 in neuroinflammation mouse model: The study was performed in the murine LPS-induced neuroinflammation model described previously. […] The LPS (O111:B4, Calbiochem, San Diego, CA) solution in sterile saline (10 mg/kg, 0.2 mL) was administered intraperitoneally and the radiotracer study was performed on the 3rd day thereafter.
The animals were injected IV with 3.7 MBq (0.1 mCi) [^11C]1 [specific radioactivity = 444 GBq/µmol (12 Ci/µmol)] and sacrificed by cervical dislocation at 45 min after the radiotracer injection. The whole brains were removed, dissected on ice and blood samples (0.2-0.5 cc) were taken from heartand their radioactivity content was determined in a γ-counter LKB/Wallac CompuGamma. The outcome variables were calculated as SUVR = SUVwhole brain/SUVblood.

CSF1R [2] = system: CSF1R; design: method as in PMID 18242992; conditions: read-out: CSF1R functional potency IC50; cited from earlier work
[3] = Ex vivo regional brain distribution of [^11C]1 in control CD1 mice; design: species or system CD1 male mice; conditions: for Regional brain uptake: mean ± SD, n = 3
Protocol: The regional brain uptake of [^11C]1 in control CD1 male mice at three time points after injection of radiotracer is shown in Table 2. […] The uptake in other regions studied here was lower.
Brain regional distribution of [^11C]1 in control mice, baseline: All animal studies were conducted within the guidelines of approved IACUC protocols for mice and non-human primates. Male CD1 mice of four to eight weeks of age, weighing 24-29 g from Charles River Laboratories (Wilmington, MA) were used. […] The brains were removed and dissected on ice. The brain regions (cerebellum, hippocampus, frontal cortex, brain stem and rest of brain) were weighed and their radioactivity content was determined in a γ-counter LKB/Wallac 1283 CompuGamma CS (Bridgeport, CT). The percentage of injected dose per gram of tissue %ID/g tiss was calculated (Table 2).

[4] = Dynamic PET brain uptake in control baboon; type: in vivo, Papio anubis baboon; conditions: peak at 30 min after injection
Protocol: Dynamic PET scan was performed on a male baboon (Papio anubis, 27 kg) using the High Resolution Research Tomograph (CPS Innovations, Knoxville, TN) with an IV injection of 751 MBq (20.3 mCi) [^11C]1 [specific radioactivity: 518 TBq/mmol (14,000 Ci/mmol)]. PET imaging and data analysis and radiometabolite analysis of baboon arterial blood are described in detail in the SI Appendix.
PET images were acquired using a CPS/CTI High Resolution Research Tomograph (HRRT), which has an axial resolution (FWHM) of 2.4 mm, and in plane resolution of 2.4–2.8 mm. The animal was anesthetized and handled as described previously. The 90 min PET data were binned into […]: four 15-s, four 30-s, three 1-min, two 2-min, five 4-min, and twelve 5-min frames. Images were reconstructed using the iterative ordered subset expectation maximization (OS-EM) algorithm (with six iterations and 16 subsets) with correction for radioactive decay, deadtime, attenuation, scatter and randoms. The reconstructed image space consisted of cubic voxels, each 1.22 mm^3 in size, and spanning dimensions of 31 cm × 31 cm (transaxially) and 25 cm (axially).
The image analysis and kinetic modeling were performed using software PMOD (v3.7, PMOD Technologies Ltd, Zurich, Switzerland). Dynamic PET images were first co-registered with the MRI images. […]

[5] = Radiometabolite analysis of baboon blood; type: in vivo, Papio anubis baboon; conditions: 90 min post injection
Protocol: (75%) at 90 min post injection.
Samples were centrifuged at 1200×g and the radioactivity in plasma were measured with a cross-calibrated gamma counter. Selected plasma samples (5, 10, 20, 30, 60, and 90 min) were analyzed with high performance liquid chromatography (HPLC) for radioactive metabolites in plasma as described above.

[6] = Radiochemical purity of formulated [^11C]1 after end-of-synthesis by analytical HPLC; type: physicochemical; conditions: within 90 min after the end-of-synthesis
Protocol: To a 1 mL V-vial, precursor, 4-cyano-N-(2-(4-methylpiperidin-1-yl)-4-(piperazin-1-yl)phenyl)-1H-pyrrole-2-carboxamide, 8 (1 mg) was added in solution of 0.2 mL of anhydrous DMF. [^11C]Methyl iodide, carried by a stream of helium, was trapped in the precursor solution. The reaction was heated at 80 °C for 3.5 min, then quenched with 0.2 mL of water. The crude reaction product was purified by reverse-phase high performance liquid chromatography (HPLC) at a flow rate of 12 mL/min. The radiolabelled product [^11C]1 (tR = 7–8 min) was fully separated from the precursor (tR = 2.7 min) and collected in a solution of 0.3 g sodium ascorbate in 50 mL water. The aqueous solution was transferred through an activated Waters Oasis Sep-Pak Light cartridge (Milford, MA). After washing the cartridge with 10 mL saline, the product was eluted with 1 mL of ethanol through a […] sterile filter into a sterile, pyrogen-free vial containing 4 mL saline, and 10 mL of 0.9% saline was added through the same filter. The final product, [^11C]1, was analyzed by analytical HPLC to determine the radiochemical purity (> 99%) and specific radioactivity (15–23 Ci/µmol).
HPLC conditions for [^11C]1. Preparative HPLC: Column, XBridge C18, 10 × 250 mm (Waters, Milford, MA). Mobile phase: 39%:61% acetonitrile: triethylamine-phosphate buffer, pH 7.2. Flow rate: 12 mL/min, retention time 8 min. […]

[7] = design: method as in PMID 30635412; conditions: baboon brain, baseline PET; cited from earlier work
[8] = design: method as in PMID 30635412; conditions: baboon blood, 90 min post injection; cited from earlier work

Structure (SMILES): CN1CCN(c2ccc(NC(=O)c3ccc(C#N)o3)c(N3CCCCC3)c2)CC1 [CPPC, 5-cyano-N-(4-(4-methylpiperazin-1-yl)-2-(piperidin-1-yl)phenyl)furan-2-carboxamide, reference compound]
Effect of blocking on [^11C]1 brain uptake (SUVR) (CSF1R [1]; CPPC 1 mg/kg IP 5 min before [^11C]1, LPS-treated mice): significantly decreased the uptake in the LPS-treated mice to the control level

Regional brain uptake ([3]; brain stem, 2 min): 1.78 ± 0.48 %ID/g tissue
Regional brain uptake ([3]; brain stem, 30 min): 1.32 ± 0.10 %ID/g tissue
Regional brain uptake ([3]; brain stem, 60 min): 0.92 ± 0.11 %ID/g tissue
Regional brain uptake ([3]; cerebellum, 2 min): 2.08 ± 0.39 %ID/g tissue
Regional brain uptake ([3]; cerebellum, 30 min): 1.39 ± 0.04 %ID/g tissue
Regional brain uptake ([3]; cerebellum, 60 min): 0.95 ± 0.09 %ID/g tissue
Regional brain uptake ([3]; frontal cortex, 30 min): 1.49 ± 0.17 %ID/g tissue
Regional brain uptake ([3]; frontal cortex, 60 min): 1.13 ± 0.08 %ID/g tissue
Regional brain uptake ([3]; hippocampus, 2 min): 1.63 ± 0.31 %ID/g tissue
Regional brain uptake ([3]; hippocampus, 30 min): 1.32 ± 0.10 %ID/g tissue
Regional brain uptake ([3]; hippocampus, 60 min): 1.01 ± 0.17 %ID/g tissue
Regional brain uptake ([3]; rest of brain, 2 min): 1.81 ± 0.34 %ID/g tissue
Regional brain uptake ([3]; rest of brain, 30 min): 1.31 ± 0.10 %ID/g tissue
Regional brain uptake ([3]; rest of brain, 60 min): 0.90 ± 0.06 %ID/g tissue
Total mouse brain uptake ([3]; total mouse brain): ~ 2 % ID/g tissue
Specific CSF1R binding (share of brain uptake) (CSF1R [1]; LPS-treated mice, brain): ~ 50% and 50%
Peak brain uptake [4]: 0.36 SUV
Metabolism rate [5]: 16%
Change of radiochemical purity of final product [6]: did not change
Structure (SMILES): CC1CCN(c2cc(N3CCN([11CH3])CC3)ccc2NC(=O)c2cc(C#N)c[nH]2)CC1 [[^11C]1, 4-cyano-N-(4-(4-[^11CH3]methylpiperazin-1-yl)-2-(4-methylpiperidin-1-yl)phenyl)-1H-pyrrole-2-carboxamide]
Regional brain uptake ([3]; frontal cortex, 2 min after injection): 2.15 %ID/g tissue and 2.15 ± 0.44 %ID/g tissue
SUVR (SUV whole brain/SUV blood) in LPS-treated mice versus controls (CSF1R [1]; whole brain, 40 min after injection, n = 6): significantly greater in LPS-treated mice than in controls

Structure (SMILES): [11CH3]N1CCN(c2ccc(NC(=O)c3ccc(C#N)o3)c(N3CCCCC3)c2)CC1 [[^11C]CPPC]
Brain uptake [7]: 3.5 SUV
Metabolism rate [8]: 75%
